Experimental data: patent US20140378541A1, “Synthetic Epigallocatechin Gallate (EGCG) Analogs” (WAYNE STATE UNIVERSITY, priority 2011, published 2014)

Target: T1, purified rabbit 20S proteasome (Oryctolagus cuniculus, UniProt G1T4Q9)
T1 sequence (G1T4Q9 60-263): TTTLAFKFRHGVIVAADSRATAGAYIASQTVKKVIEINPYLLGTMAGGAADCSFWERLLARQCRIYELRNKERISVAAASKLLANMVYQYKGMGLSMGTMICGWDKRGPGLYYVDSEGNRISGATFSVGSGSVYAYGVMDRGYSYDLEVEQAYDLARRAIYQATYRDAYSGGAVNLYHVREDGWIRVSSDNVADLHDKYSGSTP
Assay: Inhibition of chymotrypsin-like activity of purified 20S proteasome
Type: biochemical
Settings: purified 20S proteasome, concentration not stated
Protocol: Purified 20S proteasome was incubated with compound 5, 7, 16, or 21 (A) or MDA-MB-231 cell extract (5.7 μg) was incubated with compound 6, 8, 17, or 22 (B) at indicated concentrations for 2 hours, followed by measuring the proteasomal chymotrypsin-like activity. EGCG was used as a comparative standard.
Purified rabbit 20S proteasome and fluorogenic substrate Suc-LLVY-AMC for the proteasomal chymotrypsin like (CT-like) activity were obtained from Calbiochem Inc. (San Diego, Calif.). Fetal bovine serum (FBS) was from Tissue Culture Biologicals (Tulare, Calif.). Penicillin and streptomycin were purchased from Invitrogen Co. (Carlsbad, Calif.). RPMI 1640 medium was purchased from Invitrogen Co. (Carlsbad, Calif.). MTT (3-4,5-dimethylthiazol-2-yl-2.5-diphenyl-tetrazolium bromide) was purchased from Sigma-Aldrich.
A purified rabbit 20S proteasome (35 ng) was incubated with 20 μM of substrate Suc-LLVY-AMC in 100 μl assay buffer (20 mM Tris-HCl, pH 7.5), in the presence of EGCG or EGCG analogs at different concentrations or the solvent for 2 h at 37° C., followed by measurement of hydrolysis of the fluorogenic substrates using a Wallac Victor3™ multi-label counter with 355-nm excitation and 460-nm emission wavelengths.

## O=C(O[C@@H]1Cc2c(O)cc(O)cc2O[C@@H]1c1cc(O)c(O)c(O)c1)c1cc(O)c(O)c(O)c1 [Compound 1, (−)-Epigallocatechin gallate, reference compound]
  proteasomal inhibition (in words): potently inhibited
